The values below are quoted from earlier work in patent US10507204B2, “Pharmaceutical composition comprising amorphous lenalidomide” (SYNTHON B.V., priority 2014, dated 2019).

Molecules are shown by their SMILES.

As to `Nc1cccc2c1CN(C1CCC(=O)NC1=O)C2=O` (racemic) [Lenalidomide, (RS)-3-(4-Amino-1-oxo 1,3-dihydro-2H-isoindol-2-yl)piperidine-2,6-dione], the solubility in water result was “slightly soluble”.
